Reference: ChEMBL document CHEMBL5058646 (2022)

How the values were obtained:
[1] = target: Beta-1 adrenergic receptor (Homo sapiens) (UniProt P08588); details: Compound concentration 10.0 uM
[2] = target: Alpha-2C adrenergic receptor (Homo sapiens) (UniProt P18825); details: Compound concentration 10.0 uM
[3] = target: Mitogen-activated protein kinase 9 (Homo sapiens) (UniProt P45984); experiment: MAPK9 SGC Tm panel (DSF); details: Compound concentration 20.0 uM
[4] = target: Dual specificity protein kinase CLK1 (Homo sapiens) (UniProt P49759); experiment: CLK1 SGC Tm panel (DSF); details: Compound concentration 20.0 uM
Chain of Dual specificity protein kinase CLK1 (Homo sapiens) (P49759 whole entry, looked up): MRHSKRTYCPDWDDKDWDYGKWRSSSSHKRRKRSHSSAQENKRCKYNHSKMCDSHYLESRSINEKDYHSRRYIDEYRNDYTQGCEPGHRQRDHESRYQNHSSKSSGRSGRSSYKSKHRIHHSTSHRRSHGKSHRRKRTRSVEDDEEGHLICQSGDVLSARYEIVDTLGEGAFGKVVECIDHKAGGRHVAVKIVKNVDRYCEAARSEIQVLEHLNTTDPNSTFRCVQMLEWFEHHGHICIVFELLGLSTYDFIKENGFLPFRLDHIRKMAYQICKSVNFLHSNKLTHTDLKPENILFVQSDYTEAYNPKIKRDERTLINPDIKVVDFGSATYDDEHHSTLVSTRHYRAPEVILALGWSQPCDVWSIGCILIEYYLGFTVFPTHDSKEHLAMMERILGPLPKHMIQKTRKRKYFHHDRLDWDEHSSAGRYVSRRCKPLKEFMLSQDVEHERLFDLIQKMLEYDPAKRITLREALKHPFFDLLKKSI

[5] = target: Casein kinase II subunit alpha' (Homo sapiens) (UniProt P19784); experiment: CSNK2A2 SGC Tm panel (DSF); details: Compound concentration 20.0 uM
Chain of Casein kinase II subunit alpha' (Homo sapiens) (P19784 whole entry, looked up, the tested form may be a part): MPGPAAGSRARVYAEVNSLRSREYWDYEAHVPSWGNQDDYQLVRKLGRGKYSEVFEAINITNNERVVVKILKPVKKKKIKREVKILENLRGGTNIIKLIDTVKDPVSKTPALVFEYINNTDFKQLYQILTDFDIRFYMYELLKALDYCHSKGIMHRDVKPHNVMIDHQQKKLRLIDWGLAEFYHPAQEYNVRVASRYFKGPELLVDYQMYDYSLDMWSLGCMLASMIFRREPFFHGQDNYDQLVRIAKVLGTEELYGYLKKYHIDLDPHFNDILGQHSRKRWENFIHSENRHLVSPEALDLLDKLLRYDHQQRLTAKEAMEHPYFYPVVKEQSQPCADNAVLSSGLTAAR

[6] = target: Zinc finger and BTB domain-containing protein 43 (Homo sapiens) (UniProt O43298); details: SUD4, Compound concentration 1.0 uM
Chain of Zinc finger and BTB domain-containing protein 43 (Homo sapiens) (O43298 whole entry, the tested form may be a part): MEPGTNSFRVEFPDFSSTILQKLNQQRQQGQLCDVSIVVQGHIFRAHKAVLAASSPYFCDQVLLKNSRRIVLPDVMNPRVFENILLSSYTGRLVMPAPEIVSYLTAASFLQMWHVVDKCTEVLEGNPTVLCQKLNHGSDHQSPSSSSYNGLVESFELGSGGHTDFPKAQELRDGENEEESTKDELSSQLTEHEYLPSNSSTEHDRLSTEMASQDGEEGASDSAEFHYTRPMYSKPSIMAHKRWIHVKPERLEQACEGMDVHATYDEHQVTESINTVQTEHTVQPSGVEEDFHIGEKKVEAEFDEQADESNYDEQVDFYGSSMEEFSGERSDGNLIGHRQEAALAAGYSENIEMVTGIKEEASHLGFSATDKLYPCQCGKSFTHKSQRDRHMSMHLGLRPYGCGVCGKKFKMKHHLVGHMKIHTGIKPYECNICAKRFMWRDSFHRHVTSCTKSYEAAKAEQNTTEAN

[7] = target: Mu-type opioid receptor (Homo sapiens, UniProt P35372); details: Compound concentration 10.0 uM
Chain of Mu-type opioid receptor (P35372 whole entry): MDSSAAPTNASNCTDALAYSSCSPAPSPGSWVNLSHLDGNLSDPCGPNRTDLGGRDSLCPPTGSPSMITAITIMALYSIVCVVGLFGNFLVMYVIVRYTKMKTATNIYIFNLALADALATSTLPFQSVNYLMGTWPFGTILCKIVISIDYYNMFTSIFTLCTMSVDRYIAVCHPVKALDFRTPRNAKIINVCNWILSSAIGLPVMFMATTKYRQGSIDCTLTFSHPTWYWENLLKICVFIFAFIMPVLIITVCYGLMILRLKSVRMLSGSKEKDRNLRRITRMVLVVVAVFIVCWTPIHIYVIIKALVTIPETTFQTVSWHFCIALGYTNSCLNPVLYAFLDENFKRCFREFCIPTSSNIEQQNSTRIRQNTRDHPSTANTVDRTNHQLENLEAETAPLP

[8] = target: Vasopressin V1a receptor (Homo sapiens) (UniProt P37288); experiment: GPCRScan assay: inhibition of V1A; design: radioligand conc. used [nm], parental cells; details: Compound concentration 10.0 uM
[9] = target: Cytoplasmic tyrosine-protein kinase BMX (Homo sapiens) (UniProt P51813); experiment: BMX SGC Tm panel (DSF); details: Compound concentration 20.0 uM
Chain of Cytoplasmic tyrosine-protein kinase BMX (Homo sapiens) (P51813 whole entry, the tested form may be a part): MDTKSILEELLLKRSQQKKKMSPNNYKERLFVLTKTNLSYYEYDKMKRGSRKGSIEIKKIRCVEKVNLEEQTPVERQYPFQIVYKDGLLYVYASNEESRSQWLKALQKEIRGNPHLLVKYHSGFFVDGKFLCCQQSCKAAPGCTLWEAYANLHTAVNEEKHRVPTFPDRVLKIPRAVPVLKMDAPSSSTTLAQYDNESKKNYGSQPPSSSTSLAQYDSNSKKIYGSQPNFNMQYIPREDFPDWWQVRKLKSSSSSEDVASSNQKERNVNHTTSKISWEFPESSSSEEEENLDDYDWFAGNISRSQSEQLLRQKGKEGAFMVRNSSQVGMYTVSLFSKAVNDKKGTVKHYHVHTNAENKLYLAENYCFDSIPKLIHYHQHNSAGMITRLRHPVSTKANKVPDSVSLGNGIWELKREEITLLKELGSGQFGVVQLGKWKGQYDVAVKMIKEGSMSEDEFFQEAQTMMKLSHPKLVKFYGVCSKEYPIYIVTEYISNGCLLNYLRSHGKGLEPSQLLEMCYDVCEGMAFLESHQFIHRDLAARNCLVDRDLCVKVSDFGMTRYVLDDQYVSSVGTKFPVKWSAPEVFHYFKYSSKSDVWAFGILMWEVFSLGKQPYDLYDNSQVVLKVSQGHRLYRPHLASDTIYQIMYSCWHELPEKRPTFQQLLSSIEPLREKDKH

[10] = target: T1, Zinc finger and BTB domain-containing protein 2 (Homo sapiens) (UniProt Q8N680); details: SUD4, Compound concentration 1.0 uM
T1 sequence (whole entry): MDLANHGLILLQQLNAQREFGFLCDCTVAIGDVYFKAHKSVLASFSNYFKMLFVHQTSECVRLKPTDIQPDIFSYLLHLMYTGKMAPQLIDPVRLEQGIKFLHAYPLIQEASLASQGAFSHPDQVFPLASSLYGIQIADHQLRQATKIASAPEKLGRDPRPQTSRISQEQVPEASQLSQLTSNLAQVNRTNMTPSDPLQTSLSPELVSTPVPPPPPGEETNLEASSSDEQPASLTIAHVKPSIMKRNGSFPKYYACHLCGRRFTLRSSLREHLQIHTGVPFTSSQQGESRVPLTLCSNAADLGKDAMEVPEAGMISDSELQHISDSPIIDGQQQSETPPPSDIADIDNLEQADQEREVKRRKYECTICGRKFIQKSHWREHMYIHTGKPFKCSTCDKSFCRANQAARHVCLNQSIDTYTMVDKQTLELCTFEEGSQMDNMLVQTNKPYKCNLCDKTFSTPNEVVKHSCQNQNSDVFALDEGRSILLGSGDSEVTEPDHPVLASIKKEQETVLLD

[11] = target: T1, Zinc finger and BTB domain-containing protein 2 (Homo sapiens); details: OCI-Ly1, Compound concentration 1.0 uM
[12] = target: Cyclin-dependent kinase 2 (Homo sapiens) (UniProt P24941); experiment: CDK2 SGC Tm panel (DSF); details: Compound concentration 20.0 uM
[13] = target: Dual specificity mitogen-activated protein kinase kinase 1 (Homo sapiens) (UniProt Q02750); experiment: MAP2K1 SGC Tm panel (DSF); details: Compound concentration 20.0 uM
Chain of Dual specificity mitogen-activated protein kinase kinase 1 (Homo sapiens) (Q02750 whole entry, the tested form may be a part): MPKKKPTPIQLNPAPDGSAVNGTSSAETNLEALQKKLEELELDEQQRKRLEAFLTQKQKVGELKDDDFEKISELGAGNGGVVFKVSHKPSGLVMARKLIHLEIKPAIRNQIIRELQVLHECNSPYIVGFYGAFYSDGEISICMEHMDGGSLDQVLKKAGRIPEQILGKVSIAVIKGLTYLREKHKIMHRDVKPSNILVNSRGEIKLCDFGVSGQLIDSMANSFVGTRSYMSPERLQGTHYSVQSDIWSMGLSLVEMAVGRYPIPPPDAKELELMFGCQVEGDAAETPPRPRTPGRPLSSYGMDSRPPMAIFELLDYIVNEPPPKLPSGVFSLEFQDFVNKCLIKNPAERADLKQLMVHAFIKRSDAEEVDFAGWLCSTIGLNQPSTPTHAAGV

[14] = target: Zinc finger and BTB domain-containing protein 43 (Homo sapiens) (UniProt O43298); details: SUD4, Compound concentration 1.0 uM; remark: listed apart in the source
[15] = target: Transcription regulator protein BACH2 (Homo sapiens) (UniProt Q9BYV9); details: SUD4, Compound concentration 1.0 uM
[16] = target: Histamine H1 receptor (Homo sapiens) (UniProt P35367); details: Compound concentration 10.0 uM
Chain of Histamine H1 receptor (Homo sapiens) (P35367 whole entry): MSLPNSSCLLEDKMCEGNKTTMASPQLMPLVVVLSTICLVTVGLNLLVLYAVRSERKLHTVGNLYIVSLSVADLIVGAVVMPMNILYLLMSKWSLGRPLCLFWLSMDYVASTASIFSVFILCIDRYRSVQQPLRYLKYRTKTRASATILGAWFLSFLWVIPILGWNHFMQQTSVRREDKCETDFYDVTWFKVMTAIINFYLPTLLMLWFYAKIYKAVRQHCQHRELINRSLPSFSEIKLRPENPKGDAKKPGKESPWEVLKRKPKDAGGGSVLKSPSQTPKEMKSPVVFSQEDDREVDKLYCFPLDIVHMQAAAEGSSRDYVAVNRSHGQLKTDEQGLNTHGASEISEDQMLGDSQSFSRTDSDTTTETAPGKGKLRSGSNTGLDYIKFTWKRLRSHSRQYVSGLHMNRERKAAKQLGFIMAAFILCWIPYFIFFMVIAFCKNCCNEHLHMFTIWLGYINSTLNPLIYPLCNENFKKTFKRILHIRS

[17] = species: Rattus norvegicus; details: Compound concentration 10.0 uM
[18] = target: T2, Zinc finger and BTB domain-containing protein 9 (Homo sapiens) (UniProt Q96C00); details: SUD4, Compound concentration 1.0 uM
T2 sequence (whole entry): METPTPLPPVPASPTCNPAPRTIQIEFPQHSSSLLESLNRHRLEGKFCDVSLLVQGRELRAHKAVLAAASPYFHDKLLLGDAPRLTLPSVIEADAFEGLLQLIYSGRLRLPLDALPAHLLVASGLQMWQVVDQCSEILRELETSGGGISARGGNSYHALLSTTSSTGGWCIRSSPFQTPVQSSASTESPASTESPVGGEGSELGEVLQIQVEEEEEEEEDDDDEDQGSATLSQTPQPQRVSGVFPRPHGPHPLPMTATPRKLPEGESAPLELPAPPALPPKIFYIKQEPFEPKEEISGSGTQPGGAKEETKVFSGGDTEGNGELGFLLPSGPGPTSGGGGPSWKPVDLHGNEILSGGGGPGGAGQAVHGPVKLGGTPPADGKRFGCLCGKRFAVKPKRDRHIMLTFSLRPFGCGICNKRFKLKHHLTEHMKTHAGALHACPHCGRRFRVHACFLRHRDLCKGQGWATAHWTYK

[19] = target: T3, Zinc finger and BTB domain-containing protein 24 (Homo sapiens) (UniProt O43167); details: OCI-Ly1, Compound concentration 1.0 uM
T3 sequence (whole entry): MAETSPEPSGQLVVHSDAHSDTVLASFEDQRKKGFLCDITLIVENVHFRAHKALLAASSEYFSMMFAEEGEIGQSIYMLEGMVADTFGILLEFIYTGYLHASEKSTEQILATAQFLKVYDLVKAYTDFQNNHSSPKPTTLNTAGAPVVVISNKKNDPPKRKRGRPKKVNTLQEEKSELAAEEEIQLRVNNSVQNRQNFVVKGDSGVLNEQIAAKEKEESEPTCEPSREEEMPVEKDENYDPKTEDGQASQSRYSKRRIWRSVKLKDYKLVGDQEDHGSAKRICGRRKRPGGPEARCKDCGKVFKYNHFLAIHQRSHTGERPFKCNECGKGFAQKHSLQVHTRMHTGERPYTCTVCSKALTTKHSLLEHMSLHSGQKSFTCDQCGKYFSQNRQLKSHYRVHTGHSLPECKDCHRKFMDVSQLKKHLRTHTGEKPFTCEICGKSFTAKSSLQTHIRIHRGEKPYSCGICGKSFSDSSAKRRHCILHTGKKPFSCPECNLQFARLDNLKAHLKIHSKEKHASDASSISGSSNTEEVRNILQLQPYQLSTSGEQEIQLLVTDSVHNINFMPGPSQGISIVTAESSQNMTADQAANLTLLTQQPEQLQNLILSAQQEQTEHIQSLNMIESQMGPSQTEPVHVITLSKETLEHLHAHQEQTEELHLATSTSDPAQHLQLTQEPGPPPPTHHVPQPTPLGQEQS

Chain of Beta-1 adrenergic receptor (Homo sapiens) (P08588 whole entry, looked up): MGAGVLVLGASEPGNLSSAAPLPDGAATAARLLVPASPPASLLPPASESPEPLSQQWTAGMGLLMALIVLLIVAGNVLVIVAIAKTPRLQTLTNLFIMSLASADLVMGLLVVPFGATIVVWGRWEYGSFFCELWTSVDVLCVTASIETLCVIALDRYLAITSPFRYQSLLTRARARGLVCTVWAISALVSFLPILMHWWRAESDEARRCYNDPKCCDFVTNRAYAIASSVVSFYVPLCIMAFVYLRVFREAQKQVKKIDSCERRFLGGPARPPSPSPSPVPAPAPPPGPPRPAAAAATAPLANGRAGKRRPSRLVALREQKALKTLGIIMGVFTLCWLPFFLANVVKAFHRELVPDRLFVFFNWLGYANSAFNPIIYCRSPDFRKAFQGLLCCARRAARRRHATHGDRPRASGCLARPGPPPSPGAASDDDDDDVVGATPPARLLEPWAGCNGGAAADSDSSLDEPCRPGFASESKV
Chain of Mitogen-activated protein kinase 9 (Homo sapiens) (P45984 whole entry, looked up): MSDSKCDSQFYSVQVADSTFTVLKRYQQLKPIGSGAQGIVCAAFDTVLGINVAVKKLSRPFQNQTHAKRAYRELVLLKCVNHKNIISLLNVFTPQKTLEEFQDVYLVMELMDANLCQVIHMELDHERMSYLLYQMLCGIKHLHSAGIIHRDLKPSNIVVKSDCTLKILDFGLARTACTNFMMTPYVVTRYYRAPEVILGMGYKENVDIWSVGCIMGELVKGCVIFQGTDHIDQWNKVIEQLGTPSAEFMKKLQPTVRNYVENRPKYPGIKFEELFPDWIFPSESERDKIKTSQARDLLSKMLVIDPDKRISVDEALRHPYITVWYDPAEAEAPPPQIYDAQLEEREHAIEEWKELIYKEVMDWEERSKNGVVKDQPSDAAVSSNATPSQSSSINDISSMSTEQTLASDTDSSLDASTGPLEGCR
Chain of Alpha-2C adrenergic receptor (Homo sapiens) (P18825 whole entry): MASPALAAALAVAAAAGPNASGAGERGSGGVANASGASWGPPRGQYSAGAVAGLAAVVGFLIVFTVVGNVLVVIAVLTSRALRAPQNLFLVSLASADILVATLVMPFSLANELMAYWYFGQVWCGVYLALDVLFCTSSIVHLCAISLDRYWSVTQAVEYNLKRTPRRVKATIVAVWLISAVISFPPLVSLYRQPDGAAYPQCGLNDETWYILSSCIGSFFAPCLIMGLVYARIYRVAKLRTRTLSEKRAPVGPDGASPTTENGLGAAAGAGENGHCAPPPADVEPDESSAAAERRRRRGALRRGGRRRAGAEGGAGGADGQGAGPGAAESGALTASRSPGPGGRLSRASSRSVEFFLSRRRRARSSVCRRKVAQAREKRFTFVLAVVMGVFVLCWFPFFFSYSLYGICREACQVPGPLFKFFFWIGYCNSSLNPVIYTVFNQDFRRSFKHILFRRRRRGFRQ

Structure (SMILES): C[C@@H]1CN(c2ncc(Cl)c(Nc3ccc4c(c3)n(CCC(C)(C)O)c(=O)n4C)n2)C[C@H](C)C1(F)F
- inhibition [1]: -2.67%
- inhibition [2]: 15.1%
- Tm [3]: 54 °C
- Tm [4]: 36 °C
- Tm [5]: 43 °C
- LogFC [6]: 0.0389
- inhibition [7]: 86.6%
- inhibition [8]: 78.6%
- Tm [9]: 48 °C
- LogFC [10]: 0.029
- LogFC [11]: 0.239
- Tm [12]: 46 °C
- Tm [13]: 45 °C
- LogFC [14]: 0.0194
- LogFC [15]: -0.0895
- inhibition [16]: 10.3%
- inhibition [17]: 59.6%
- LogFC [18]: 0.0873
- LogFC [19]: -0.111
